Target: T1, IL-17A/A (Homo sapiens, UniProt Q16552)
T1 construct: purchased Genscript Z03228
T1 sequence (Q16552 24-155): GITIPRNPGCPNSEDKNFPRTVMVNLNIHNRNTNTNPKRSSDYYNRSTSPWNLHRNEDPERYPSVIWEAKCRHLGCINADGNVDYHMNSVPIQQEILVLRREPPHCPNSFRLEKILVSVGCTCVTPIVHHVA
Experiment: IL-17A/A HEK-Blue Cell Assay
Type: cell-based
Settings: HEK-Blue IL-17A reporter cell line, SEAP readout at A630, 20 hours incubation with IL-17A/A; top concentration 10 uM, 1 uM or 0.3 uM

SMILES	IL-17A/A inhibition (pIC50)
CCn1nccc1C(=O)N[C@H](C(=O)Nc1ccc([C@H](C)[C@@H](NC(=O)c2cnsc2)C(=O)N2CCN(C)CC2)cc1F)[C@H]1CC[C@H](C)CC1 [Compound 487]	B (8>B≥7 as B)

Same assay, conditions: HEK-Blue IL-17A reporter cell line, SEAP readout at A630, 20 hours incubation with IL-17A/A; top concentration 10 uM, 1 uM or 0.3 uM; read-out: IL-17A/A inhibition (pIC50) (converted)

SMILES	IC50
CCn1nccc1C(=O)N[C@H](C(=O)Nc1ccc([C@H](C)[C@@H](NC(=O)C(C)(F)F)C(=O)N2CCN(C)CC2)cc1F)[C@H]1CC[C@H](C)CC1 [Compound 471]	0.01 to 0.1 µM
CCn1nccc1C(=O)N[C@H](C(=O)Nc1ccc([C@H](C)[C@@H](NC(=O)[C@H](C)F)C(=O)N2CCN(C)CC2)cc1F)[C@H]1CC[C@H](C)CC1 [Compound 472]	0.01 to 0.1 µM
CCn1nccc1C(=O)N[C@H](C(=O)Nc1ccc([C@H](C)[C@@H](NC(=O)c2nonc2C)C(=O)N2CCN(C)CC2)cc1F)[C@H]1CC[C@H](C)CC1 [Compound 473]	0.01 to 0.1 µM
CCn1nccc1C(=O)N[C@H](C(=O)Nc1ccc([C@H](C)[C@@H](NC(=O)[C@H](C)CC(=O)O)C(=O)N2CCN(C)CC2)cc1F)[C@H]1CC[C@H](C)CC1 [Compound 474]	0.01 to 0.1 µM
CCn1nccc1C(=O)N[C@H](C(=O)Nc1ccc([C@H](C)[C@@H](NC(=O)[C@H](C)OC)C(=O)N2CCN(C)CC2)cc1F)[C@H]1CC[C@H](C)CC1 [Compound 476]	< 0.01 µM
CCn1nccc1C(=O)N[C@H](C(=O)Nc1ccc([C@H](C)[C@@H](NC(=O)[C@@H]2CCCO2)C(=O)N2CCN(C)CC2)cc1F)[C@H]1CC[C@H](C)CC1 [Compound 477]	0.01 to 0.1 µM
CCn1nccc1C(=O)N[C@H](C(=O)Nc1ccc([C@H](C)[C@@H](NC(=O)COC)C(=O)N2CCN(C)CC2)cc1F)[C@H]1CC[C@H](C)CC1 [Compound 478]	0.01 to 0.1 µM
CCn1nccc1C(=O)N[C@H](C(=O)Nc1ccc([C@H](C)[C@@H](NC(=O)C(C)(F)F)C(=O)N2CCN(C)[C@@H](C)C2)cc1F)[C@H]1CC[C@H](C)CC1 [Compound 479]	< 0.01 µM
CCn1nccc1C(=O)N[C@H](C(=O)Nc1ccc([C@H](C)[C@@H](NC(=O)C(C)(F)F)C(=O)N2CCN(C)[C@H](C)C2)cc1F)[C@H]1CC[C@H](C)CC1 [Compound 480]	< 0.01 µM
CCn1nccc1C(=O)N[C@H](C(=O)Nc1ccc([C@H](C)[C@@H](NC(=O)C(F)(F)CC)C(=O)N2CCN(C)[C@H](C)C2)cc1F)[C@H]1CC[C@H](C)CC1 [Compound 481]	< 0.01 µM
CCn1nccc1C(=O)N[C@H](C(=O)Nc1ccc([C@H](C)[C@@H](NC(=O)C2(F)CCC2)C(=O)N2CCN(C)[C@H](C)C2)cc1F)[C@H]1CC[C@H](C)CC1 [Compound 482]	0.01 to 0.1 µM
CCn1nccc1C(=O)N[C@H](C(=O)Nc1ccc([C@H](C)[C@@H](NC(=O)OC)C(=O)N2CCN(C)CC2)cc1F)[C@H]1CC[C@H](C)CC1 [Compound 483]	0.01 to 0.1 µM
CCn1nccc1C(=O)N[C@H](C(=O)Nc1ccc([C@H](C)[C@@H](NC(=O)OC2CC2)C(=O)N2CCN(C)CC2)cc1F)[C@H]1CC[C@H](C)CC1 [Compound 484]	0.01 to 0.1 µM
CCn1nccc1C(=O)N[C@H](C(=O)Nc1ccc([C@H](C)[C@@H](NS(=O)(=O)CC)C(=O)N2CCN(C)CC2)cc1F)[C@H]1CC[C@H](C)CC1 [Compound 485]	0.01 to 0.1 µM
CCn1nccc1C(=O)N[C@H](C(=O)Nc1ccc([C@H](C)[C@@H](NC(=O)c2ccnn2C2CCN(C)CC2)C(=O)N2CCN(C)CC2)cc1F)[C@H]1CC[C@H](C)CC1 [Compound 486]	0.01 to 0.1 µM
CCn1nccc1C(=O)N[C@H](C(=O)Nc1ccc([C@H](C)[C@@H](NC(=O)N(C)C2CC2)C(=O)N2CCN(C)CC2)cc1F)[C@H]1CC[C@H](C)CC1 [Compound 488]	< 0.01 µM
CCc1nonc1C(=O)N[C@H](C(=O)Nc1ccc([C@H](C)[C@@H](NC(=O)c2nonc2C)C(=O)N2CCN(C)CC2)cc1F)[C@H]1CC[C@H](C)CC1 [Compound 489]	0.01 to 0.1 µM
CCc1nonc1C(=O)N[C@H](C(=O)Nc1ccc([C@H](C)[C@@H](NC(=O)c2ccnn2C)C(=O)N2CCN(C)CC2)cc1F)[C@H]1CC[C@H](C)CC1 [Compound 490]	0.01 to 0.1 µM
